Reference: the Kinase Knowledgebase extract (Sharma et al. 2016)
Several values for one entry are separate records, joined by “and”; a condition that tells them apart may be missing. Equal values may be shown once.

Experiments:
[1] = target: MAPK14 (human) (UniProt Q16539); assay: Inhibition of LPS Stimulated TNF Production by U937 Cells; settings: for inhibition: concentration not given here
[2] = target: MAPK14 (human) (UniProt Q16539); assay: Inhibition of MAPK14 Kinase Activity by PHAS-I Assay; settings: for inhibition: concentration not given here

Sequence of MAPK14 (human) (Q16539 whole entry, looked up): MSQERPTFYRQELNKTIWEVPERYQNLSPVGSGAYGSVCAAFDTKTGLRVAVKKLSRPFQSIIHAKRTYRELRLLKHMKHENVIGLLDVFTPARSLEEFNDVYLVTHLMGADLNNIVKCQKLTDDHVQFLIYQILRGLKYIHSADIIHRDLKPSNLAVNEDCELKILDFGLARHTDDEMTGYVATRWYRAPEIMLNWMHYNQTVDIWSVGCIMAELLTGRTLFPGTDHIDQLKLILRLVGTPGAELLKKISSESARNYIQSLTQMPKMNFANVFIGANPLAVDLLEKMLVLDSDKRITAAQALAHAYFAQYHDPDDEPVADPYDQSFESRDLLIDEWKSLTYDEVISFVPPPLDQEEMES

inhibition [1] [%]	inhibition [2] [%]	IC50 [2] [µM]	IC50 [1]	Compound
79	78			CC(=O)NCCc1[nH]nc(-c2ccc(F)cc2)c1-c1ccncc1
18		0.071		O=C(NCCCc1[nH]nc(-c2ccc(F)cc2)c1-c1ccncc1)NCCc1cccnc1
73	70			CCCNC(=O)NCCc1[nH]nc(-c2ccc(F)cc2)c1-c1ccncc1
37	85			C[C@H](NC(=O)NCCCc1[nH]nc(-c2ccc(F)cc2)c1-c1ccncc1)c1ccccc1
	82		0.57 µM	CC(=O)O[C@H](C)C(=O)NCCCc1[nH]nc(-c2ccc(F)cc2)c1-c1ccncc1
24	61			COc1ccc(CC(=O)NCCc2[nH]nc(-c3ccc(F)cc3)c2-c2ccncc2)cc1OC
47	57			Cc1cc(C)c(NC(=O)NCCc2[nH]nc(-c3ccc(F)cc3)c2-c2ccncc2)c(C)c1
		2.4	> 1 µM	O=S(=O)(NCc1[nH]nc(-c2ccc(F)cc2)c1-c1ccncc1)C(F)(F)F
23	65			O=C(NCCc1[nH]nc(-c2ccc(F)cc2)c1-c1ccncc1)c1ccccc1I
		0.55	> 1 µM	O=C(NCc1[nH]nc(-c2ccc(F)cc2)c1-c1ccncc1)N1CCCC1
32	82			COc1cc(OC)c(NC(=O)NCCc2[nH]nc(-c3ccc(F)cc3)c2-c2ccncc2)cc1Cl
60	52			O=S(=O)(NCCCc1[nH]nc(-c2ccc(F)cc2)c1-c1ccncc1)c1ccc(F)cc1F
25	63			CCOC(=O)C(C)NC(=O)NCCc1[nH]nc(-c2ccc(F)cc2)c1-c1ccncc1 (stereo not drawn)
33	58			O=C(NCCc1[nH]nc(-c2ccc(F)cc2)c1-c1ccncc1)c1ccc(I)cc1
60	83			CC(Oc1ccccc1)C(=O)NCCCc1[nH]nc(-c2ccc(F)cc2)c1-c1ccncc1 (stereo not drawn)
57	74			O=S(=O)(NCCCc1[nH]nc(-c2ccc(F)cc2)c1-c1ccncc1)c1ccccc1
25	67			CC(C)=CC(=O)NCCc1[nH]nc(-c2ccc(F)cc2)c1-c1ccncc1

inhibition [1] [%]	inhibition [2] [%]	IC50 [2] [µM]	IC50 [1]	Compound
	62		0.52 µM	COc1ccccc1NC(=O)NCCc1[nH]nc(-c2ccc(F)cc2)c1-c1ccncc1
39	61			O=C(NCCc1[nH]nc(-c2ccc(F)cc2)c1-c1ccncc1)Nc1cc(Cl)ccc1Cl
26	60			CCOC(=O)C(CC(C)C)NC(=O)C(=O)NCCc1[nH]nc(-c2ccc(F)cc2)c1-c1ccncc1 (stereo not drawn)
	74		1.1 µM	CCOC(=O)CNC(=O)NCCc1[nH]nc(-c2ccc(F)cc2)c1-c1ccncc1
55	80			CC(Oc1ccccc1)C(=O)NCCc1[nH]nc(-c2ccc(F)cc2)c1-c1ccncc1 (stereo not drawn)
23	58			O=C(NCCc1[nH]nc(-c2ccc(F)cc2)c1-c1ccncc1)c1cccnc1
2	82			CCOC(=O)c1cccc(NC(=O)NCCc2[nH]nc(-c3ccc(F)cc3)c2-c2ccncc2)c1
31	76			COC(=O)c1ccccc1NC(=O)NCCc1[nH]nc(-c2ccc(F)cc2)c1-c1ccncc1
22	56			CCOC(=O)NC(=O)NCCc1[nH]nc(-c2ccc(F)cc2)c1-c1ccncc1
	89		0.76 µM	O=C(NCCc1[nH]nc(-c2ccc(F)cc2)c1-c1ccncc1)[C@@H]1CCCN1
	72		1.83 µM	CC(C)=CC(=O)NCCCc1[nH]nc(-c2ccc(F)cc2)c1-c1ccncc1
34	77			CC(C)S(=O)(=O)NCCc1[nH]nc(-c2ccc(F)cc2)c1-c1ccncc1
22	79			CCc1ccccc1NC(=O)NCCc1[nH]nc(-c2ccc(F)cc2)c1-c1ccncc1
70	93			CCS(=O)(=O)NCCc1[nH]nc(-c2ccc(F)cc2)c1-c1ccncc1
38	69			O=C(NCCc1[nH]nc(-c2ccc(F)cc2)c1-c1ccncc1)c1ccncc1
79	89			COC(=O)C(=O)NCc1[nH]nc(-c2ccc(F)cc2)c1-c1ccncc1

Second part, the compound before the results:

Compound	inhibition [1] [%]	inhibition [2] [%]	IC50 [2] [µM]	IC50 [1]
CCCCOc1ccc(NC(=O)NCc2[nH]nc(-c3ccc(F)cc3)c2-c2ccncc2)cc1	13	42		
COc1cc(NC(=O)NCCc2[nH]nc(-c3ccc(F)cc3)c2-c2ccncc2)cc(OC)c1OC	23	56		
Cc1c(-c2ccncc2)c(-c2ccc(F)cc2)nn1CC(=O)Nc1ccccc1Sc1ccc([N+](=O)[O-])cn1	18	90		
C[C@H](NC(=O)Nc1ccccc1F)c1[nH]nc(-c2ccc(F)cc2)c1-c1ccncc1	38		6.84	
Cc1c(-c2ccncc2)c(-c2ccc(F)cc2)nn1CC(=O)NC(C)Cc1c[nH]c2ccccc12 (stereo not drawn)	28	65		
O=C(NCc1[nH]nc(-c2ccc(F)cc2)c1-c1ccncc1)c1cccc(CCl)c1	21	83		
CCCCCSc1cccc(NC(=O)Cn2nc(-c3ccc(F)cc3)c(-c3ccncc3)c2C)c1		94		> 10 µM
O=C(NCCc1[nH]nc(-c2ccc(F)cc2)c1-c1ccncc1)Nc1ccc(Oc2ccccc2)cc1	24	63		
CCCCOc1ccc(NC(=O)NCCc2[nH]nc(-c3ccc(F)cc3)c2-c2ccncc2)cc1	27	45		
CCN(CC)C(=O)Cn1nc(-c2ccc(F)cc2)c(-c2ccncc2)c1C	36	54		
O=C(NCc1[nH]nc(-c2ccc(F)cc2)c1-c1ccncc1)N1CCOCC1			0.56	> 1 µM
COC(=O)[C@H](CSCc1ccccc1)NC(=O)Cn1nc(-c2ccc(F)cc2)c(-c2ccncc2)c1C		84		> 10 µM
COc1ccc(OC)c(NC(=O)NCc2[nH]nc(-c3ccc(F)cc3)c2-c2ccncc2)c1	40	39		
C[C@H](NS(=O)(=O)c1ccccc1C(=O)O)c1[nH]nc(-c2ccc(F)cc2)c1-c1ccncc1	70		0.76	
Cc1cccc(S(=O)(=O)N[C@H](C)c2[nH]nc(-c3ccc(F)cc3)c2-c2ccncc2)c1	96		0.025	
Cc1cccc(C)c1NC(=O)Cn1nc(-c2ccc(F)cc2)c(-c2ccncc2)c1C	18	83		
O=C(NCCc1[nH]nc(-c2ccc(F)cc2)c1-c1ccncc1)Nc1cccc2ccccc12	39	83		
CC1(C)[C@@H]2CC[C@]1(CCS(=O)(=O)NCc1[nH]nc(-c3ccc(F)cc3)c1-c1ccncc1)C(=O)C2	1		0.045	
O=S(=O)(NCCc1[nH]nc(-c2ccc(F)cc2)c1-c1ccncc1)c1ccc(F)cc1F	34	88		
COCCN(Cc1cccc(OC)c1)C(=O)Cn1nc(-c2ccc(F)cc2)c(-c2ccncc2)c1C	22	37		
Cc1c(-c2ccncc2)c(-c2ccc(F)cc2)nn1CC(=O)NC1CCCC1	36	58		

Compound	inhibition [1] [%]	inhibition [2] [%]	IC50 [2] [µM]	IC50 [1]
N/C(=C(\N)S(=O)(=O)NCc1[nH]nc(-c2ccc(F)cc2)c1-c1ccncc1)c1ccccc1		89		2.78 µM
Cc1ccc(S(=O)(=O)N[C@H](CCc2ccccc2)C(=O)NCc2[nH]nc(-c3ccc(F)cc3)c2-c2ccncc2)cc1		94		10 µM
Cc1c(-c2ccncc2)c(-c2ccc(F)cc2)nn1CC(=O)N(C)CCn1ccnc1		43		> 10 µM
CC1(C)[C@H]2CC[C@@]1(CCS(=O)(=O)NCc1[nH]nc(-c3ccc(F)cc3)c1-c1ccncc1)C(=O)C2	11		< 0.1	
Cc1ccc(S(=O)(=O)N[C@@H](Cc2ccccc2)C(=O)NCCc2[nH]nc(-c3ccc(F)cc3)c2-c2ccncc2)cc1	17	72		
O=S(=O)(NCCc1[nH]nc(-c2ccc(F)cc2)c1-c1ccncc1)c1ccccc1	20	88		
COC(=O)[C@H](CCSC)NC(=O)Cn1nc(-c2ccc(F)cc2)c(-c2ccncc2)c1C	36	58		
O=S(=O)(NCCc1[nH]nc(-c2ccc(F)cc2)c1-c1ccncc1)c1ccccc1F	36	87		
CC(NC(=O)NCCc1[nH]nc(-c2ccc(F)cc2)c1-c1ccncc1)c1cccc2ccccc12 (stereo not drawn)	2	85		
O=C(NCCc1[nH]nc(-c2ccc(F)cc2)c1-c1ccncc1)Nc1ccc(OC(F)(F)F)cc1	4	48		
CCN1CCC(N(CC)C(=O)Cn2nc(-c3ccc(F)cc3)c(-c3ccncc3)c2C)C1 (stereo not drawn)		32		> 10 µM
Cn1cc(-c2ccncc2)c(-c2ccc(F)cc2)n1			0.7	0.0967 µM and 0.13 µM
O=S(=O)(NCc1[nH]nc(-c2ccc(F)cc2)c1-c1ccncc1)c1cc2nnoc2c2ccccc12	32	50		
Cc1c(-c2ccncc2)c(-c2ccc(F)cc2)nn1CC(=O)N1CCCN(C)CC1	24	51		
O=[N+]([O-])c1ccc(S(=O)(=O)NCc2[nH]nc(-c3ccc(F)cc3)c2-c2ccncc2)cc1	2	47		
Cc1c(-c2ccncc2)c(-c2ccc(F)cc2)nn1CC(=O)Nc1ccccc1OC(F)(F)F		91		> 10 µM
CCCCCCCCOc1cccc(NC(=O)Cn2nc(-c3ccc(F)cc3)c(-c3ccncc3)c2C)c1		86		> 10 µM
C[C@H](NS(=O)(=O)[C@]12CC[C@@H](CC1=O)C2(C)C)c1[nH]nc(-c2ccc(F)cc2)c1-c1ccncc1	39		0.83	
COC(=O)C(C)NC(=O)Cn1nc(-c2ccc(F)cc2)c(-c2ccncc2)c1C (stereo not drawn)	1	44		
O=S(=O)(Cc1ccccc1)NCCc1[nH]nc(-c2ccc(F)cc2)c1-c1ccncc1	58	96		
